Source: patent US11028088B2, “Modulators of BTK proteolysis and methods of use” (Yale University, priority 2018, dated 2021)
Like-named read-outs stand apart in the source and are kept apart here.

Assays:
HER3 = target: T1, HER3 (Homo sapiens, UniProt P21860); assay: HER3/ERBB3 degradation (western blot, OVCAR8 cells); format: cell-based
T1 construct: endogenous in cells; host or cells: OVCAR8
Protocol: FIG. 10 illustrates a Western blot of Compound 102-related degradation of ERBB3.
In various embodiments, treatment with PROTAC was performed in one of two ways: 1) For experiments involving >16 h exposure to compound, a 1000× stock was added to cells followed by gentle agitation; 2) For shorter treatments, a 2× stock was added to an equal volume of cells to ensure uniform drug exposure. For immortalized cell lines, 2×10^6 cells per treatment condition were collected and washed once with ice cold PBS (IX), followed by lysis in buffer containing 20 mM Tris [pH 8.0], 0.25% sodium deoxycholate, 1% Triton X-100, supplemented with protease (Roche) and phosphatase inhibitors (10 mM NaF, 2 mM Na3VO4, 10 mM β-glycerophosphate, 10 mM Na-pyrophosphate). Lysates were spun at 15,000×g for 10 min at 4° C. and supernatant was quantified for total protein content using the Pierce BCA Protein Assay (Thermo Fisher Scientific). 30 μg of protein was loaded onto 12% SDS-PAGE gels or 4-15% Mini-PROTEAN TGX precast gradient gels (Bio-Rad), transferred onto nitrocellulose membranes, and probed with the specified primary antibodies overnight with rocking at 4° C. in 1×TBS-T containing 5% non-fat milk.
(§1) Either anti-rabbit or anti-mouse HRP-conjugated secondary antibodies (Pierce) were incubated with the membranes for 1 h at room temperature at 1:10,000 dilutions in 5% non-fat milk in IX TBS-T. Imaging was performed using the ECL Prime chemiluminescent western blot detection reagents (Amersham) followed by visualization with the Bio-Rad ChemiDoc imaging instrument. All western blots were subsequently processed and quantified using the accompanying Bio-Rad Image Lab software. Primary antibodies used were: Anti-actin antibody (Cat. #MA 1-744) purchased from ThermoFisher Scientific; anti-BTK (Cat. #8547), anti-pBTK (Y223, Cat. #5082), anti-ITK (Cat. #2380), anti-GAPDH (Cat. #5179), anti-IKZF1 (Cat. #9034), and anti-IKZF3 (Cat. #15103) antibodies purchased from Cell Signaling Technology. All antibodies were used at 1:1,000 dilutions in 5% non-fat milk in 1×TBS-Tween (TBS-T) or Blotto blocker (Thermo Scientific) unless otherwise noted in supplier specifications.

BTK = BTK (Homo sapiens, UniProt Q06187); assay: BTK degradation in NAMALWA cells (immunoblot); format: cell-based; design: host or cells: NAMALWA; conditions: NAMALWA cells; for DC50: concentration needed to degrade 50% of the total pool of BTK; for ability to degrade BTK: dose escalation; for Max: maximal BTK degradation
Protocol: NAMALWA and Jurkat cell lines were purchased from ATCC and cultured according to supplier guidelines at 37° C. […] Wild-type and C481S BTK XLA cell lines were cultured as previously described (39). Written, informed consent was obtained prior to the collection of cells from CLL patients using the IWCLL2008 criteria. Isolation of mononuclear cells from peripheral blood was prepared using density gradient centrifugation. B-cells were then negatively selected ([…] Technologies). […] They were maintained at 37° C. in 5% CO2.
Lysates were spun at 15,000×g for 10 min at 4° C. and supernatant was quantified for total protein content using the Pierce BCA Protein Assay (Thermo Fisher Scientific).
as §1, with “Primary antibodies used were: Anti-actin antibody (Cat. #MA 1-744) purchased from ThermoFisher Scientific; anti-BTK (Cat. #8547), anti-pBTK (Y223, Cat. #5082), anti-ITK (Cat. #2380), anti-GAPDH (Cat. #5179), anti-IKZF1 (Cat. #9034), and anti-IKZF3 (Cat. #15103) antibodies purchased from Cell Signaling Technology.” left out

T1 sequence (P21860 20-1342): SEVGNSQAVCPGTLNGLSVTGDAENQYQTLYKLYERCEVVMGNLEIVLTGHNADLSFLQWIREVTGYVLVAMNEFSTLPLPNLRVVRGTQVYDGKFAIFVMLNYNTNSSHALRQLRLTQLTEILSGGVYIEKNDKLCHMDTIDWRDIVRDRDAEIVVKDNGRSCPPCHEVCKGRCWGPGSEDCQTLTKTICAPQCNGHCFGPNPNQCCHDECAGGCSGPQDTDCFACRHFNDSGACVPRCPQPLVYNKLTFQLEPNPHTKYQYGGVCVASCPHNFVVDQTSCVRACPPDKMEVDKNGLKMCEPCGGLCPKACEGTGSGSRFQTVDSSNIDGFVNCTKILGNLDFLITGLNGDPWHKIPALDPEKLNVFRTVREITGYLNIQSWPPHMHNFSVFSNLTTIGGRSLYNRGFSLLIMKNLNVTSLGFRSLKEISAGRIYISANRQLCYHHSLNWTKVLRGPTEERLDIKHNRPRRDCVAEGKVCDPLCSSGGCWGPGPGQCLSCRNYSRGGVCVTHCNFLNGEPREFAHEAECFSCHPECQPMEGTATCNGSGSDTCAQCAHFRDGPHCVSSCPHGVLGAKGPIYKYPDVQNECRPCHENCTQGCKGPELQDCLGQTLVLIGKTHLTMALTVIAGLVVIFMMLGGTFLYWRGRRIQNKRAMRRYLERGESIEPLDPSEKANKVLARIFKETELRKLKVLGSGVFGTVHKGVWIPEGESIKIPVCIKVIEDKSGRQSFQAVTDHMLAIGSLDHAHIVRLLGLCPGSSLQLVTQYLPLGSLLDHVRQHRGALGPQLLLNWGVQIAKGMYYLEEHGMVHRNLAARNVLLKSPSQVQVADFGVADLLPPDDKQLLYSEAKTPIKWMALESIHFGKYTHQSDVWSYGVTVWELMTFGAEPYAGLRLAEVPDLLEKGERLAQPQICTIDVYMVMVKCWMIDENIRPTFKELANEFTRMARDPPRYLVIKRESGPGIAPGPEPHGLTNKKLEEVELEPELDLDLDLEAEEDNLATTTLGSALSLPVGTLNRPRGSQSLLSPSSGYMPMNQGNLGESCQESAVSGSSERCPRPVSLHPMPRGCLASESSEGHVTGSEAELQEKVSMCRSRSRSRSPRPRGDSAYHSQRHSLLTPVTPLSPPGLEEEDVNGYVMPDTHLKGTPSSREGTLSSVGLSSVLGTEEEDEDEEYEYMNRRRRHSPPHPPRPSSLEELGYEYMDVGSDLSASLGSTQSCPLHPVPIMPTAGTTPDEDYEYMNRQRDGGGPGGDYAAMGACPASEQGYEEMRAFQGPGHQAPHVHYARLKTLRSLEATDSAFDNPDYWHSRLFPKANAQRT
Sequence of BTK (Q06187 whole entry): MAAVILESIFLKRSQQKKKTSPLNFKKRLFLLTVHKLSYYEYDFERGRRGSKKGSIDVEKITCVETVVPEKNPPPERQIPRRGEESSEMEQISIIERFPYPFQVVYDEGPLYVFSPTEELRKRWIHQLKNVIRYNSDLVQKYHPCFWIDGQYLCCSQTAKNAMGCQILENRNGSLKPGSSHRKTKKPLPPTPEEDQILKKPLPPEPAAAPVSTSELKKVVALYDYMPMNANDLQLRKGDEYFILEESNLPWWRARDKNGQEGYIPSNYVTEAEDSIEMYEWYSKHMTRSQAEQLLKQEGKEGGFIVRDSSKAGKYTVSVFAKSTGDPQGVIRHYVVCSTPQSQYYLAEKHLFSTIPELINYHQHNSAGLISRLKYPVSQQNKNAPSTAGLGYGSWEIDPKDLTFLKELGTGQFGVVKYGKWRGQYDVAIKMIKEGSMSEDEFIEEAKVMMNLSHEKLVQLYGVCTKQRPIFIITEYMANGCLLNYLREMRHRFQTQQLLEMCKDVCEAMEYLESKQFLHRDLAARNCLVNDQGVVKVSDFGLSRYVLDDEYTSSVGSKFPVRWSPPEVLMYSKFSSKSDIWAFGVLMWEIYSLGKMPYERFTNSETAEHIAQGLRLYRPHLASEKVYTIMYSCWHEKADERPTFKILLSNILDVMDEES

**Q.** Which results are given for `Cc1ncsc1-c1ccc(CNC(=O)[C@@H]2C[C@@H](O)CN2C(=O)[C@@H](NC(=O)CCCCCOCCOCCOCCOCCOCCCCCCN2CCC(n3nc(-c4ccc(Oc5ccccc5)cc4)c4c(N)ncnc43)CC2)C(C)(C)C)cc1` [Compound 120, (2S,4R)-1-((S)-29-(4-(4-amino-3-(4-phenoxyphenyl)-1H-pyrazolo[3,4-d]pyrimidin-1-yl)piperidin-1-yl)-2,2-dimethyl-5-oxo-11,14,17,20,23-pentaoxa-4-azanonacosanecarbonyl)-4-hydroxy-N-(4-(4-methylthiazol-5-yl)benzyl)pyrrolidine-2-carboxamide]?
**A.** HER3 Degradation (HER3): No; DC50 (BTK): No Degradation

**Q.** For `Nc1ncnc2c1c(-c1ccc(Oc3ccccc3)cc1)nn2C1CCN(CCOCC(=O)Nc2cccc3c2C(=O)N(C2CCC(=O)NC2=O)C3=O)CC1` (stereo not drawn) [Compound 100, 2-(2-(4-(4-amino-3-(4-phenoxyphenyl)-1H-pyrazolo[3,4-d]pyrimidin-1-yl)piperidin-1-yl)ethoxy)-N-(2-(2,6-dioxopiperidin-3-yl)-1,3-dioxoisoindolin-4-yl)acetamide], which “HER3 Degradation” value (HER3) is on record?
**A.** No

**Q.** And the “ability to degrade BTK” value (BTK; 24 h)?
**A.** inability to degrade BTK

**Q.** What about the DC50 (BTK) of the same compound?
**A.** No Degradation (n = 4)

**Q.** Which “HER3 Degradation” value (HER3) does the source give for `Nc1ncnc2c1c(-c1ccc(Oc3ccccc3)cc1)nn2C1CCN(CCCCOCCCCOCC(=O)Nc2cccc3c2C(=O)N(C2CCC(=O)NC2=O)C3=O)CC1` (stereo not drawn) [Compound 106, 2-[4-[4-[4-[4-amino-3-(4-phenoxyphenyl)pyrazolo[3,4-d]pyrimidin-1-yl]-1-piperidyl]butoxy]butoxy]-N-[2-(2,6-dioxo-3-piperidyl)-1,3-dioxo-isoindolin-4-yl]acetamide] here?
**A.** No

**Q.** And the “degradation of BTK at 1.0 μM” value (BTK)?
**A.** nearly complete degradation

**Q.** What about the DC50 (BTK; read-out: DC50) of the same compound?
**A.** 90.1 nM

**Q.** And the Max (BTK; at 1.0 μM)?
**A.** 93%

**Q.** `Nc1ncnc2c1c(-c1ccc(Oc3ccccc3)cc1)nn2C1CCN(CCCCCCOCCCCCCOCC(=O)Nc2cccc3c2C(=O)N(C2CCC(=O)NC2=O)C3=O)CC1` (stereo not drawn) [Compound 107, 2-(6-(6-(4-(4-amino-3-(4-phenoxyphenyl)-1H-pyrazolo[3,4-d]pyrimidin-1-yl)piperidin-1-yl)hexyloxy)hexyloxy)-N-(2-(2,6-dioxopiperidin-3-yl)-1,3-dioxoisoindolin-4-yl)acetamide] was tested. Which “HER3 Degradation” value (HER3) did it give?
**A.** No

**Q.** And the DC50 (BTK; read-out: DC50)?
**A.** 98.5 nM

**Q.** What about the Max (BTK; at 1.0 μM) of the same compound?
**A.** 98%

**Q.** For `C=CC(=O)Nc1cc(-c2nn(C3CCN(CCCCOCCCCOCC(=O)Nc4cccc5c4C(=O)N(C4CCC(=O)NC4=O)C5=O)CC3)c3ncnc(N)c23)ccc1Oc1ccccc1` (stereo not drawn) [Compound 122, N-(5-(4-amino-1-(1-(4-(4-(2-(2-(2,6-dioxopiperidin-3-yl)-1,3-dioxoisoindolin-4-ylamino)-2-oxoethoxy)butoxy)butyl)piperidin-4-yl)-1H-pyrazolo[3,4-d]pyrimidin-3-yl)-2-phenoxyphenyl)acrylamide], which “HER3 Degradation” value (HER3) is on record?
**A.** No

**Q.** What about the DC50 (BTK) of the same compound?
**A.** No Degradation

**Q.** Which results are given for `Cc1ncsc1-c1ccc(CNC(=O)[C@@H]2C[C@@H](O)CN2C(=O)[C@@H](NC(=O)CCCCCOCCOCCOCCOCCCCCCN2CCC(n3nc(-c4ccc(Oc5ccccc5)cc4)c4c(N)ncnc43)CC2)C(C)(C)C)cc1` [Compound 119, (2S,4R)-1-((S)-26-(4-(4-amino-3-(4-phenoxyphenyl)-1H-pyrazolo[3,4-d]pyrimidin-1-yl)piperidin-1-yl)-2,2-dimethyl-5-oxo-11,14,17,20-tetraoxa-4-azahexacosanecarbonyl)-4-hydroxy-N-(4-(4-methylthiazol-5-yl)benzyl)pyrrolidine-2-carboxamide]?
**A.** HER3 Degradation (HER3): No; DC50 (BTK): No Degradation

**Q.** Which “HER3 Degradation” value (HER3) does the source give for `Cc1ncsc1-c1ccc(CNC(=O)[C@@H]2C[C@@H](O)CN2C(=O)[C@@H](NC(=O)COCCOCCOCCOCCN2CCC(n3nc(-c4ccc(Oc5ccccc5)cc4)c4c(N)ncnc43)CC2)C(C)(C)C)cc1` [Compound 109, (2S,4R)-1-((S)-17-(4-(4-amino-3-(4-phenoxyphenyl)-1H-pyrazolo[3,4-d]pyrimidin-1-yl)piperidin-1-yl)-2-tert-butyl-4-oxo-6,9,12,15-tetraoxa-3-azaheptadecane)-4-hydroxy-N-(4-(4-methylthiazol-5-yl)benzyl)pyrrolidine-2-carboxamide] here?
**A.** No

**Q.** And the DC50 (BTK; read-out: DC50)?
**A.** 278 nM

**Q.** And the Max (BTK; at 2.5 μM)?
**A.** 73%

**Q.** With `Nc1ncnc2c1c(-c1ccc(Oc3ccccc3)cc1)nn2C1CCN(CCCCOCCCCOCC(=O)Nc2ccc3c(c2)C(=O)N(C2CCC(=O)NC2=O)C3=O)CC1` (stereo not drawn) [Compound 105, 2-[4-[4-[4-[4-amino-3-(4-phenoxyphenyl)pyrazolo[3,4-d]pyrimidin-1-yl]-1-piperidyl]butoxy]butoxy]-N-[2-(2,6-dioxo-3-piperidyl)-1,3-dioxo-isoindolin-5-yl]acetamide] as the compound, how does the “HER3 Degradation” value (HER3) read?
**A.** No

**Q.** And the DC50 (BTK; read-out: DC50)?
**A.** 11.6 nM

**Q.** And the Max (BTK; at 250 nM)?
**A.** >99%

**Q.** And the “hook-effect (increase in BTK levels at high PROTAC concentration)” value (BTK; up to 2.5 μM, 24 h)?
**A.** (No

**Q.** What does the source list for `Cc1ncsc1-c1ccc(CNC(=O)[C@@H]2C[C@@H](O)CN2C(=O)[C@@H](NC(=O)COCCOCCOCCOCCN2CCN(C3CCC(n4nc(-c5ccc(Oc6ccccc6)cc5)c5c(N)ncnc54)CC3)CC2)C(C)(C)C)cc1` (stereo partly drawn) [Compound 114, (2S,4R)-1-((S)-17-(4-(4-(4-amino-3-(4-phenoxyphenyl)-1H-pyrazolo[3,4-d]pyrimidin-1-yl)cyclohexyl)piperazin-1-yl)-2-tert-butyl-4-oxo-6,9,12,15-tetraoxa-3-azaheptadecane)-4-hydroxy-N-(4-(4-methylthiazol-5-yl)benzyl)pyrrolidine-2-carboxamide]?
**A.** HER3 Degradation (HER3): No; DC50 (BTK; read-out: DC50): 248 nM; Max (BTK; at 1.0 μM): 30%

**Q.** `Nc1ncnc2c1c(-c1ccc(Oc3ccccc3)cc1)nn2C1CCN(CCCCCCOCCOCC(=O)Nc2cccc3c2C(=O)N(C2CCC(=O)NC2=O)C3=O)CC1` (stereo not drawn) [Compound 104, 2-[2-[6-[4-[4-amino-3-(4-phenoxyphenyl)pyrazolo[3,4-d]pyrimidin-1-yl]-1-piperidyl]hexoxy]ethoxy]-N-[2-(2,6-dioxo-3-piperidyl)-1,3-dioxo-isoindolin-4-yl]acetamide] was tested. Which “HER3 Degradation” value (HER3) did it give?
**A.** No

**Q.** And the “degradation of BTK at 1.0 μM” value (BTK)?
**A.** nearly complete degradation

**Q.** What about the DC50 (BTK; read-out: DC50) of the same compound?
**A.** 80.6 nM

**Q.** What about the Max (BTK; at 1.0 μM) of the same compound?
**A.** 96%

**Q.** Which results are given for `Nc1ncnc2c1c(-c1ccc(Oc3ccccc3)cc1)nn2C1CCN(CCOCCOCC(=O)Nc2cccc3c2C(=O)N(C2CCC(=O)NC2=O)C3=O)CC1` (stereo not drawn) [Compound 101, 2-(2-(2-(4-(4-amino-3-(4-phenoxyphenyl)-1H-pyrazolo[3,4-d]pyrimidin-1-yl)piperidin-1-yl)ethoxy)ethoxy)-N-(2-(2,6-dioxopiperidin-3-yl)-1,3-dioxoisoindolin-4-yl)acetamide]?
**A.** HER3 Degradation (HER3): No; ability to degrade BTK (BTK; 24 h): inability to degrade BTK; DC50 (BTK): No Degradation

**Q.** What does the source list for `Cc1ncsc1-c1ccc(CNC(=O)[C@@H]2C[C@@H](O)CN2C(=O)[C@@H](NC(=O)COCCCCCOCCCCCCN2CCC(n3nc(-c4ccc(Oc5ccccc5)cc4)c4c(N)ncnc43)CC2)C(C)(C)C)cc1` [Compound 111, (2S,4R)-1-((S)-2-(2-(5-(6-(4-(4-amino-3-(4-phenoxyphenyl)-1H-pyrazolo[3,4-d]pyrimidin-1-yl)piperidin-1-yl)hexyloxy)pentyloxy)acetamido)-3,3-dimethylbutanoyl)-4-hydroxy-N-(4-(4-methylthiazol-5-yl)benzyl)pyrrolidine-2-carboxamide]?
**A.** HER3 Degradation (HER3): No; DC50 (BTK; read-out: DC50): 144 nM; Max (BTK; at 1.0 μM): 45%
